# pIC50: −log10 of the molar value. Read-outs that look alike come from different tables or passages of the source.
# Key:
# HDAC7 = biological target: T1, HDAC7 (Homo sapiens, UniProt Q8WUI4); experiment: HDAC biochemical activity measurement (fluorescent substrate deacetylation);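 further: fluorogenic deacetylation assay using acetyl-lysine substrate at 20 µM, enzyme and compound incubated 30 min at 37 °C, then developer added, fluorescence read at 360/460 nm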; conditions: HDAC7; 37° C. 30 minutes
# T1 sequence (Q8WUI4 1-952): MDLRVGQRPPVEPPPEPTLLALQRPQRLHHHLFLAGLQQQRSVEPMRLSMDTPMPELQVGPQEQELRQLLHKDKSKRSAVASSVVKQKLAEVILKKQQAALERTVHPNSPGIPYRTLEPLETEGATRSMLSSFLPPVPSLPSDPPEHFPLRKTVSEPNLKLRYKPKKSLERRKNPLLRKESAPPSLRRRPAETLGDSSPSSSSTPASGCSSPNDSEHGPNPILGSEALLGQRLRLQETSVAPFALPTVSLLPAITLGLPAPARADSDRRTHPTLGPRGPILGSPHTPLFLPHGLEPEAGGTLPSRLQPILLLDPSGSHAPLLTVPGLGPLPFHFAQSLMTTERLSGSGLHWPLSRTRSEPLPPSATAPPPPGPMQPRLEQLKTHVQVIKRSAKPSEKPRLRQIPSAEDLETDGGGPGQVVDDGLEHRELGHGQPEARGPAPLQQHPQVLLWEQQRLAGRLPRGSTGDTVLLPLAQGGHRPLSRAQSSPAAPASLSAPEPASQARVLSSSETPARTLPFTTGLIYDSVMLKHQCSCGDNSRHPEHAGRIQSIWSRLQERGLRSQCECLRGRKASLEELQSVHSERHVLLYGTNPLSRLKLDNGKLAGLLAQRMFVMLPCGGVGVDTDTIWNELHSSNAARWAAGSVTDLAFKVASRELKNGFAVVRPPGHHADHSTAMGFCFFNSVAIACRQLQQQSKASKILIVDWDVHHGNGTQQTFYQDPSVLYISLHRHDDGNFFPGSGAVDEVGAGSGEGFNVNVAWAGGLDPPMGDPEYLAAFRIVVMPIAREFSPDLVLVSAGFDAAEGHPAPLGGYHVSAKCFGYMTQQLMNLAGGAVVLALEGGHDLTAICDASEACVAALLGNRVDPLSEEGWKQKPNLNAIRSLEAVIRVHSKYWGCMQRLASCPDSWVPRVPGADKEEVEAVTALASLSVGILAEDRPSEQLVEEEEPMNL
# HDAC3 = HDAC3 (Homo sapiens, UniProt O15379); experiment: as above;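 further: fluorogenic acetyl-lysine substrate (20 µM) deacetylated by HDAC3, then developer added for 15 min at room temperature, release of fluorophore read at excitation 360 nm, emission 460 nm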
# HDAC3, sequence (O15379 whole entry, species assumed): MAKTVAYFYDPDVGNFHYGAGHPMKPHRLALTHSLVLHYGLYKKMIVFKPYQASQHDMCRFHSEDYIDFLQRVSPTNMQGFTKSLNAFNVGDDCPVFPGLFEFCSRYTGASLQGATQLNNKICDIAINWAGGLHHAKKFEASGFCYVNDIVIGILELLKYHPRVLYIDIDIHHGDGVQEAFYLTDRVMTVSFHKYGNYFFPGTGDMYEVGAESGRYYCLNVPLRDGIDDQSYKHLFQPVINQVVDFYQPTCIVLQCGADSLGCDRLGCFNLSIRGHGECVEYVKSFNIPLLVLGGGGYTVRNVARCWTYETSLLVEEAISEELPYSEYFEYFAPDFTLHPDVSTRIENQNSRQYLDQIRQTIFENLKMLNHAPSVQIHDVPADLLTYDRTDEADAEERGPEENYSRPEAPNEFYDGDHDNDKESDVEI
# HDAC3, sequence (Q9Y618 395-489 partner limits assumed, species assumed): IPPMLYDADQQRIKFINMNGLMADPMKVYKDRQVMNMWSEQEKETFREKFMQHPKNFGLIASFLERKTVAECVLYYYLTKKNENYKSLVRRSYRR
# [1] = tested on: SGC-7901 (human gastric cancer cells); experiment: MTT cancer cell growth inhibition; type: cell-based; conditions: Homo sapiens, SGC-7901, 72 h, MTT, 72 hours incubation, SGC-7901 cells; read-out: GI50 SGC-7901
# How it was run: (§1)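 Tumour cells in 10% FBS-supplemented DMEM or RPMI 1640 are plated at 1500 per well, dosed next day with compound (10^−5 through 10^−10 M, final) and kept 72 h. MTT is added for 4 h; dissolved formazan is measured at 570 nm and GI50 determined.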
# [2] = tested on: Huh-7 (human hepatoma cells); experiment: MTT cancer cell growth inhibition; type: cell-based; conditions: Homo sapiens, Huh-7, 72 h, MTT, 72 hours incubation, Huh-7 cells; read-out: GI50 Huh-7
# How it was run: as §1
# [3] = tested on: KBM-5 (human chronic myelogenous leukemia); experiment: MTT cancer cell growth inhibition; type: cell-based; conditions: Homo sapiens, KBM5, 72 h, MTT, 72 hours incubation, KBM-5 cells; read-out: GI50 KBM-5
# How it was run: as §1
# [4] = tested on: Hela (human cervical cancer cells); experiment: MTT cancer cell growth inhibition; type: cell-based; conditions: Homo sapiens, HeLa, 72 h, MTT
# How it was run: as §1
# [5] = tested on: KBM5-T315I (human chronic myelogenous leukemia); experiment: MTT cancer cell growth inhibition; type: cell-based; conditions: Homo sapiens, 72 h, MTT, 72 hours incubation, KBM5-T315I cells; read-out: GI50 KBM5-T315I
# How it was run: as §1
# [6] = tested on: MDA-MB-231 (breast cancer cells); experiment: MTT cancer cell growth inhibition; type: cell-based; conditions: Homo sapiens, MDA-MB-231, 72 h, read-out: GI50 MDA-MB-231, MTT, 72 hours incubation, MDA-MB-231 cells
# How it was run: as §1
# [7] = tested on: BGC-823 (human gastric cancer cells); experiment: MTT cancer cell growth inhibition; type: cell-based; conditions: Homo sapiens, BGC-823, 72 h, MTT
# How it was run: as §1
# [8] = tested on: HT1080 (human fibrosarcoma cells); experiment: MTT cancer cell growth inhibition; type: cell-based; conditions: Homo sapiens, HT-1080, 72 h, MTT
# How it was run: as §1
# [9] = tested on: N-87 (human gastric cancer cells); experiment: MTT cancer cell growth inhibition; type: cell-based; conditions: Homo sapiens, 72 h, MTT, 72 hours incubation, N-87 cells; read-out: GI50 N-87
# How it was run: as §1
# HDAC1 = HDAC1 (Homo sapiens, UniProt Q13547); experiment: HDAC biochemical activity measurement (fluorescent substrate deacetylation);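 further: fluorogenic acetyl-lysine substrate (20 µM) deacetylated by HDAC1, then developer releases fluorophore read at 360 nm excitation and 460 nm emission, inhibitor incubated 30 min at 37 °C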
# HDAC1, sequence (Q13547 whole entry, species assumed): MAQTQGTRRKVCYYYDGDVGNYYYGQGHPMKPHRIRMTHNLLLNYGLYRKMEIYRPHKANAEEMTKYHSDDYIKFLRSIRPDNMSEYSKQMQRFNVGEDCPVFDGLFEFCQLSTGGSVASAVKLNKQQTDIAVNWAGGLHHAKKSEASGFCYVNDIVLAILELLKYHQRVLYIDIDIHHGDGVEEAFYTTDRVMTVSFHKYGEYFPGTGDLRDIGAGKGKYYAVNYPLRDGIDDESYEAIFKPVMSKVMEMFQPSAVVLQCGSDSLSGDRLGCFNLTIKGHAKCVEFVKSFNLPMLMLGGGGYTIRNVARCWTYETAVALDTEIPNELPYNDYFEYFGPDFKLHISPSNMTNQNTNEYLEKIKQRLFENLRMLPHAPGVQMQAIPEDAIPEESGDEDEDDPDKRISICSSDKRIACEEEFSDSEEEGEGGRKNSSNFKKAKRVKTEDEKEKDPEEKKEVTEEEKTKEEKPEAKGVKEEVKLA
# HDAC8 = biological target: T2, HDAC8 (Homo sapiens, UniProt Q9BY41); experiment: as above; conditions: 37° C. 30 minutes
# T2 sequence (Q9BY41 1-377): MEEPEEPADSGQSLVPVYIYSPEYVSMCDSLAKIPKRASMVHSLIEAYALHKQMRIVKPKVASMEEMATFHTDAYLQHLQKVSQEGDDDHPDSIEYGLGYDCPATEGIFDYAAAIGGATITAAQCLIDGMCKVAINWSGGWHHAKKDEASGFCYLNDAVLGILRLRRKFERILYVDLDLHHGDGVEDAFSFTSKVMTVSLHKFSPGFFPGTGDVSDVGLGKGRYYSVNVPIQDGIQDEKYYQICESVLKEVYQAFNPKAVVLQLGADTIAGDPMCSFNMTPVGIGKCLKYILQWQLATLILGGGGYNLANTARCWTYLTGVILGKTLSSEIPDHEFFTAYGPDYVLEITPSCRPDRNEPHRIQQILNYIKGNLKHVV
# [10] = Hela cells, 72 hours incubation, read-out: GI50 Hela
# [11] = BGC-823 cells, 72 hours incubation, read-out: GI50 BG
# [12] = HT1080 cells, 72 hours incubation, read-out: GI50 HT1
# [13] = HDAC1, 37° C. 30 minutes, read-out: IC50 HDAC1
# [14] = read-out: IC50 HDAC3, HDAC3, 37° C. 30 minutes
# [15] = 72 hours incubation, read-out: GI50 Hela
# [16] = 72 hours incubation, read-out: GI50 BG
# [17] = 72 hours incubation, read-out: GI50 HT1
# [18] = Table 3, column C, read-out: IC50 HDAC1, C (six-membered ring with substituents)
# [19] = 72 hours, present invention, read-out: GI50 Hela, a
# [20] = 72 hours, present invention, read-out: GI50 BGC823, a
# [21] = Table 2, read-out: IC50 HDAC1, a (compounds of the present invention)
IC50 HDAC7 (HDAC7),pIC50 (HDAC3),GI50 [1] [nM],GI50 [2] [nM],GI50 [3] [nM],GI50 [5] [nM],GI50 [6] [nM],GI50 [9] [nM],pIC50 (HDAC1; [13]),pIC50 (HDAC8),pIC50 (HDAC3; [14]),"GI50 [4, 15] [nM]","GI50 [7, 16] [nM]","GI50 [8, 17] [nM]",Structure (SMILES),other results
no activity,–,35,37,82,22,37,30,7.92,7.37,7.47,80,30,80,C/C=C1\NC(=O)c2nc(ccc2F)CNC(=O)C[C@@H](/C=C/CCSC(=O)CCCCCCC)OC(=O)[C@H](C(C)C)NC1=O [Compound 30],pIC50 (HDAC1; [18]): 7.92
no activity,–,53,33,37,46,95,18,7.39,7.52,7.46,20,60,10,C/C=C1\NC(=O)c2cccc(n2)CNC(=O)C[C@@H](/C=C/CCSC(=O)CCCCCCC)OC(=O)[C@H](C(C)C)NC1=O [Compound 1],"GI50 [4, 19]: 20 nM; GI50 [7, 20]: 60 nM; pIC50 (HDAC1; [21]): > 7.30; pIC50 (HDAC1; Table 3, read-out: IC50 HDAC1, D (non-substituent)): 7.39"
no activity,7.34,37,51,–,31,98,39,7.04,7.19,–,37000,5400,18000,C/C=C1\NC(=O)c2cccc(n2)CCNC(=O)C[C@@H](/C=C/CCSC(C)=O)OC(=O)[C@H](C(C)C)NC1=O [Example 26],–
no activity,7.41,49,24,81,56,24,61,7.15,–,–,80,60,40,C/C=C1\NC(=O)c2ccc(F)c(n2)CNC(=O)C[C@@H](/C=C/CCSC(=O)CC)OC(=O)[C@H](C(C)C)NC1=O [Example 47],–

# The remaining lines, values behind:
Structure (SMILES),IC50 HDAC7 (HDAC7),pIC50 (HDAC3),GI50 [1] [nM],GI50 [2] [nM],GI50 [3] [nM],GI50 [5] [nM],GI50 [6] [nM],GI50 [9] [nM],pIC50 (HDAC1; [13]),pIC50 (HDAC8),pIC50 (HDAC3; [14]),"GI50 [4, 15] [nM]","GI50 [7, 16] [nM]","GI50 [8, 17] [nM]",other results
C/C=C1\NC(=O)c2nc(ccc2SC)CNC(=O)C[C@@H](/C=C/CCS)OC(=O)[C@H](C)NC1=O [Compound 232],no activity,7.68,63,21,8,43,23,45,7.18,7.23,–,–,–,–,"GI50 [4, 10]: 30 nM; GI50 [7, 11]: 50 nM; GI50 [8, 12]: 20 nM"
C/C=C1\NC(=O)c2cccc(n2)CNC(=O)C[C@@H](/C=C/CCSC(=O)CCCCCCC)OC(=O)[C@H](CSCC)NC1=O [Compound 242],no activity,7.49,32,59,56,33,16,31,7.72,7.26,–,–,–,–,"GI50 [4, 10]: 80 nM; GI50 [4, 19]: 88 nM; GI50 [7, 11]: 10 nM; GI50 [7, 20]: 14 nM; GI50 [8, 12]: 30 nM; GI50 ([8]; 72 hours, present invention, read-out: GI50 HT1080, a): 330 nM; pIC50 (HDAC1; [21]): > 7.70"
C/C=C1\NC(=O)c2cccc(n2)CCNC(=O)C[C@@H](/C=C/CCS)OC(=O)[C@H](C(C)C)NC1=O [Compound 146],no activity,7.55,35,65,33,23,56,23,7.14,7.37,–,40,–,80,–
C/C=C1\NC(=O)c2cc(F)cc(n2)CNC(=O)C[C@@H](/C=C/CCSC(=O)CCCCCCC)OC(=O)[C@H](Cc2ccccc2)NC1=O [Compound 70],no activity,–,43,36,93,37,36,53,7.48,7.47,7.62,90,50,–,pIC50 (HDAC1; [18]): 7.48

# From patent US10065990B2, “Cyclic peptide compound, and preparation method, pharmaceutical composition and use thereof” (HANGZHOU GUANYU BIO-MEDICAL CO., LTD, priority 2013, dated 2018)
